Laboratory results from publication PMC13576449, “Small-Molecule Activators of PRMT1: Discovery, SAR Analyses, and Proapoptotic Effects in Pancreatic Cancer Cells” (Journal of Medicinal Chemistry, 2026).

Target: T1, FLAG-tagged PRMT6 (Homo sapiens, UniProt Q96LA8)
T1 construct: The complete ORFs of human PRMT3 and PRMT6 were inserted; made in house; host or cells: Sf9 insect cells (baculovirus)
Assay: Fluorescence-based in vitro PRMT assay (F-PRMT assay), PRMT6
Assay type: biochemical
Conditions: Table S2; 100 µM compound, vs solvent control = 100%, n=3; racemates used
Description: To evaluate the effects of the selected candidate molecules on the catalytic activity of type I enzymes, we employed a quantitative fluorescence-based in vitro PRMT activity (F-PRMT) assay using recombinant FLAG-tagged PRMT proteins expressed and affinity-purified from baculovirus-infected Sf9 cells (SI Figure S1, SI Figure S2A).
Human cell lines (PaTu8988T, PANC-1) were obtained from ATCC (American Type Culture Collection) and cultured in DMEM supplemented with 10% fetal calf serum (FCS, Gibco/BRL), 1% penicillin/streptomycin at 37 °C and 5% CO2. […] For PRMT1 inhibition, cells were treated with type I PRMT inhibitor MS023 hydrochloride (Biomol). For induction of genotoxic stress, cells were treated with gemcitabine (LC Laboratories). […] The following plasmids were used: pFASTBAC-FLAG-rat PRMT1, pFASTBAC-FLAG-mouse PRMT4, and pGEX-GAR. The complete ORFs of human PRMT3 and PRMT6 were inserted into the pFASTBAC HT-3xFLAG B vector via BamHI/HindIII and BamHI/XhoI sites, respectively.
For PRMT protein expression in insect cells, recombinant baculovirus (bacmid) was generated using the Bac-to-Bac baculovirus system (Invitrogen). Sf9 cells were transfected with bacmid DNA using X-tremeGENE HP DNA transfection reagent (Sigma-Aldrich) according to the manufacturer's instructions. After 3–5 days, supernatants were collected, filtered, and used to infect Sf9 cells to amplify the virus. After 2 rounds of virus amplification and estimation of the final P3 virus titer, the P3 virus (2–5 μL/10^6 cells) was applied for large-scale infection of 200 × 10^6 Sf9 cells in suspension culture at a density of 1 × 10^6 cells/mL. Cells were harvested 5–6 days post-infection by centrifugation at 500 g for 5 min at room temperature. Protein purification from baculovirus-infected Sf9 cells was performed as previously described. , Cells were lysed in BC buffer (20 mM HEPES pH 7.9, 250 mM NaCl, 10% (v/v) glycerin, 0.4 mM EDTA, 1 mM DTT) containing a protease inhibitor cocktail (Roche) by 3 freeze-thaw cycles. After centrifugation at 11,000 rpm (Sorval SS34 rotor) and 4 °C for 1 h, the supernatant (whole cell protein extract) was incubated with anti-FLAG M2 Affinity Gel (Cytiva) at 4 °C and under agitation for 4 h. Subsequently, beads were washed in BC buffer containing various NaCl concentrations (once in BC with 1 M NaCl, twice in BC with 500 mM NaCl, twice in BC with 250 mM NaCl and twice in BC with 100 mM NaCl). FLAG-tagged proteins were either maintained bead-bound as a 50% (v/v) slurry in BC buffer with 100 mM NaCl and stored at −80 °C or were eluted in the appropriate elution buffer (depending on the subsequent assay) containing 0.25 mg/mL 3xFLAG peptides (Sigma-Aldrich) at 4 °C for 30–45 min. To remove the FLAG-peptides from the eluate, dialysis was performed in elution buffer containing 10% (v/v) glycerol at 4 °C for 4–6 h using Slide-A-Lyzer Dialysis Devices (Thermo Fisher Scientific) according to the manufacturer’s recommendations.
In the first step, the fluorogenic substrate Nα-Benzoyl-L-arginine-7-amido-4-methylcoumarin (Bz-Arg-AMC, Sigma-Aldrich) undergoes methylation by PRMTs upon the addition of the cofactor SAM. In the second reaction step, trypsin cleaves the nonmethylated substrate, leading to the generation of the 7-amino-4-methylcoumarin product, which can be quantified by subsequent fluorescence measurement (excitation: 355 nm, emission: 460 nm). The first reaction was conducted with bead-bound PRMTs at a total volume of 100 μL. Each condition was performed as a technical triplicate to determine the mean and the standard deviation. […] For the negative controls, SAM was substituted with assay buffer. The incubation was continued at 37 °C and under agitation (1,000 rpm) for a duration of 2 h.

T1 sequence (Q96LA8 whole entry): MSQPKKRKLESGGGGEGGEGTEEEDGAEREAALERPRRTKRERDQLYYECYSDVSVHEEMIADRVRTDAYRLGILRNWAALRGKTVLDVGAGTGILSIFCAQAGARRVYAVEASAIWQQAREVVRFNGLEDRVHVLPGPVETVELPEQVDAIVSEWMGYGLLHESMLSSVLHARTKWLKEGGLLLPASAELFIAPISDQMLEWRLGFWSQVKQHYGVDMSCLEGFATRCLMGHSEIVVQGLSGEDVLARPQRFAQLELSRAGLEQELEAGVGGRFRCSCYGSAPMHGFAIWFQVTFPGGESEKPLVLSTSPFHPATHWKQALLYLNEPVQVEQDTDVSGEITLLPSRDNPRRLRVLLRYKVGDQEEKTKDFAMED

| Structure (SMILES) | Experimental result (PRMT6) |
| --- | --- |
| CN1CCC[C@H]1CCn1ccnc1-c1ccc2nonc2c1 (racemic) [Compound K002FT007] | n.e. (did not significantly affect the catalytic activity of the intended PRMT (less than ±6% change or not significant p-value), are marked with n.e. (no effect)) |
| Cc1nc(N)cc(NC[C@H]2CC(=O)N(c3ccccc3)C2)n1 (racemic) [Compound K002FT010] | n.e. (did not significantly affect the catalytic activity of the intended PRMT (less than ±6% change or not significant p-value), are marked with n.e. (no effect)) |
| CN[C@H](CO)c1cc(OC)ccc1Br (racemic) [Compound K002FT016] | n.e. (did not significantly affect the catalytic activity of the intended PRMT (less than ±6% change or not significant p-value), are marked with n.e. (no effect)) |
| COc1ccc(Cl)cc1NC(=O)[C@@H]1CCCN1 (racemic) [Compound K002JS001] | n.e. (did not significantly affect the catalytic activity of the intended PRMT (less than ±6% change or not significant p-value), are marked with n.e. (no effect)) |
| Nc1nccc(N2CC[C@@]3(CCCN(C4CCOCC4)C3=O)C2)n1 (racemic) [Compound K002JS009] | n.e. (did not significantly affect the catalytic activity of the intended PRMT (less than ±6% change or not significant p-value), are marked with n.e. (no effect)) |
| CN1CC[C@@](O)(CNCCc2cccc(OC(F)(F)F)c2)C1 (racemic) [Compound K600JK012] | n.e. (did not significantly affect the catalytic activity of the intended PRMT (less than ±6% change or not significant p-value), are marked with n.e. (no effect)) |
| CNCCNC(=O)NC[C@@]12CNC[C@@]1(C(F)(F)F)C2 (racemic) [Compound K600JK013] | n.e. (did not significantly affect the catalytic activity of the intended PRMT (less than ±6% change or not significant p-value), are marked with n.e. (no effect)) |
| COc1cc(CNCCNCCO)cc(Cl)c1OC(C)C [Compound K002FT001] | n.e. (did not significantly affect the catalytic activity of the intended PRMT (less than ±6% change or not significant p-value), are marked with n.e. (no effect)) |
| COCC1(CNCc2nnc([C@H]3C[C@H](N)C3)n2C2CC2)CC1 [Compound K002FT002] | n.e. (did not significantly affect the catalytic activity of the intended PRMT (less than ±6% change or not significant p-value), are marked with n.e. (no effect)) |
| CCNc1nc(C)cc(NCCNC(=O)Cc2ccc(F)cc2)n1 [Compound K002FT003] | n.e. (did not significantly affect the catalytic activity of the intended PRMT (less than ±6% change or not significant p-value), are marked with n.e. (no effect)) |
| Cc1cccc(-n2ncc3c(NCCN(C)C)ncnc32)c1 [Compound K002FT004] | n.e. (did not significantly affect the catalytic activity of the intended PRMT (less than ±6% change or not significant p-value), are marked with n.e. (no effect)) |
| CN(C)CCNc1ncnc2cc(-c3ccc(F)cc3)sc12 [Compound K002FT005] | n.e. (did not significantly affect the catalytic activity of the intended PRMT (less than ±6% change or not significant p-value), are marked with n.e. (no effect)) |
| COc1cc(CNCCO)ccc1Oc1nnnn1-c1ccccc1 [Compound K002FT006] | n.e. (did not significantly affect the catalytic activity of the intended PRMT (less than ±6% change or not significant p-value), are marked with n.e. (no effect)) |
| CNCC1CCN(Cc2cc(F)ccc2C)CC1 [Compound K002FT009] | n.e. (did not significantly affect the catalytic activity of the intended PRMT (less than ±6% change or not significant p-value), are marked with n.e. (no effect)) |
| COc1cc(CNCCN(C)C)ccc1OCc1nc(C)no1 [Compound K002FT011] | n.e. (did not significantly affect the catalytic activity of the intended PRMT (less than ±6% change or not significant p-value), are marked with n.e. (no effect)) |
| Cc1cc(NC(=O)CN(C)C)cc(N2CCN(C(C)C)CC2)c1 [Compound K002FT012] | n.e. (did not significantly affect the catalytic activity of the intended PRMT (less than ±6% change or not significant p-value), are marked with n.e. (no effect)) |
| Clc1ccc(N2CCN(c3ncnc4[nH]ccc34)CC2)nc1 [Compound K002FT013] | n.e. (did not significantly affect the catalytic activity of the intended PRMT (less than ±6% change or not significant p-value), are marked with n.e. (no effect)) |
| CCc1c(-c2cccc3ccccc23)nc2ccc(NC(=O)CN)cn12 [Compound K002FT014] | n.e. (did not significantly affect the catalytic activity of the intended PRMT (less than ±6% change or not significant p-value), are marked with n.e. (no effect)) |
| c1ccc2oc(C3CCN(Cc4c[nH]cn4)CC3)nc2c1 [Compound K002FT015] | n.e. (did not significantly affect the catalytic activity of the intended PRMT (less than ±6% change or not significant p-value), are marked with n.e. (no effect)) |
| CN(C)CC(=O)Nc1cnccc1N1CCOCC1 [Compound K002FT018] | n.e. (did not significantly affect the catalytic activity of the intended PRMT (less than ±6% change or not significant p-value), are marked with n.e. (no effect)) |
| CNCC(=O)NCCc1ccc(OC)c(OC)c1 [Compound K002JS002] | n.e. (did not significantly affect the catalytic activity of the intended PRMT (less than ±6% change or not significant p-value), are marked with n.e. (no effect)) |
| COc1cccc(NC(=O)CNCCC(N)=O)c1 [Compound K002JS005] | n.e. (did not significantly affect the catalytic activity of the intended PRMT (less than ±6% change or not significant p-value), are marked with n.e. (no effect)) |
| COc1cc(CN2CCC(CN)C2)cc(Cl)c1OC (centres unmarked) [Compound K002JS010] | n.e. (did not significantly affect the catalytic activity of the intended PRMT (less than ±6% change or not significant p-value), are marked with n.e. (no effect)) |
| NCCCCNCc1cc(Br)cs1 [Compound K002JS012] | n.e. (did not significantly affect the catalytic activity of the intended PRMT (less than ±6% change or not significant p-value), are marked with n.e. (no effect)) |
| O=[N+]([O-])c1ccc(Sc2n[nH]c(Cc3ccccc3)n2)nc1 [Compound K002JS015] | n.e. (did not significantly affect the catalytic activity of the intended PRMT (less than ±6% change or not significant p-value), are marked with n.e. (no effect)) |
| OC1(c2c[nH]nn2)CCN(CCOc2ccc(Cl)cc2)C1 (centres unmarked) [Compound K002JS017] | n.e. (did not significantly affect the catalytic activity of the intended PRMT (less than ±6% change or not significant p-value), are marked with n.e. (no effect)) |
| COc1cc(CNC(C)C)ccc1OCc1nc(C)no1 [Compound K002JS018] | n.e. (did not significantly affect the catalytic activity of the intended PRMT (less than ±6% change or not significant p-value), are marked with n.e. (no effect)) |
| CCN(CCCC(=O)Nc1cccc(C)c1)C1CNC1 [Compound K600JK005] | n.e. (did not significantly affect the catalytic activity of the intended PRMT (less than ±6% change or not significant p-value), are marked with n.e. (no effect)) |

Same assay, conditions: Table S2; 100 µM compound; mean % difference vs solvent control (100%), n=3

| Efficacy ±∆% (PRMT6) | Structure (SMILES) |
| --- | --- |
| -10% | Cc1cc(NCCc2nc(C)cc(=O)[nH]2)nc(N2CCCCC2)n1 [Compound K002FT008] |
